From patent US12415799B2, “Indazole-fused cyclic compound” (Zhejiang Yangli Pharmaceutical Technology Co., Ltd., priority 2020, dated 2025) come the findings set out here.

Data set [1] is described as follows: In vivo pharmacokinetic study in mice. Also noted: species or system female Balb/c mice. An excerpt:
Experimental purposes: To test the drug concentration in plasma of mice at different times after intravenous and intragastric administration of the test compound by LC/MS/MS using female Balb/c mice as the experimental animals. To study the pharmacokinetics of the test compound in mice in vivo and evaluate their pharmacokinetic characteristics.
Experimental animals: 4 healthy female Balb/c mice were divided into 2 groups according to the principle of similar body weight, with 2 mice in each group in IV group and 2 mice in each group in PO group. Animals were purchased from Shanghai Lingchang Biotechnology Co., Ltd.
Appropriate number of samples were weighed and prepared into 1 mg/mL solution respectively, and the mixture was stirred and ultrasonicated to reach a clear state, and the solvent was 15% HP-β-CD.
Administration: After fasting overnight, IV group was administered intravenously, and the dosage of the test compound was 5 mg/kg; PO group was administered intragastrically, and the dosage of the test compound was 10 mg/kg.
After the female Balb/c mice in the intravenous injection group were given the test compound respectively, 30 μL of blood was collected from the saphenous vein at 0.0833, 0.25, 0.5, 1, 2, 4, 8, and 24 hours, and placed in a commercialized anticoagulant tube added with EDTA-K2 in advance. After intragastric administration of the test compound, 30 μL of blood was collected from the saphenous vein at 0.25, 0.5, 1, 2, 4, 8, 12 and 24 hours, respectively, and placed in a commercialized anticoagulant tube added with EDTA-K2 in advance. After centrifugation (3,200 g, 4° C., 10 minutes), the plasma was collected, transferred to a pre-cooled centrifuge tube, quickly frozen in dry ice, and stored in a refrigerator at −60° C. or lower, until LC-MS/MS analysis. Animals were allowed to eat 4 hours after administration. LC/MS/MS method was used to determine the content of the test compound in the plasma of mice after intravenous and intragastric administration. The linear range of the method was 2.00 to 2000 nM.

A further data set has as its system rat uterus. Briefly: Uterine wet weight inhibition experiment in rat cubs. It is filed as in vivo. The following applies: 18-day-old female rat pups, oral, three consecutive days; compounds 25 mg/kg, Ethinylestradiol 0.1 mg/kg. The method, then:
The purpose of this experiment was to evaluate the effect of the compound of the present disclosure on uterine growth inhibition in 18 to 21-day-old female rat pups (provided by Beijing Vital River Laboratory Animal Technology Co., Ltd.). In this experiment, 18-day-old female rat pups were orally administered the compound of the present disclosure at a dose of 25 mg/kg for three consecutive days, and the control group was orally administered 0.1 mg/kg of Ethinylestradiol for three consecutive days, and the blank group was not given any drug except the corresponding solvent. Three days after the administration, the rats were sacrificed, and the weight of the rat uterus was weighed to observe the effect of the test drug on the growth inhibition of the rat uterus. Inhibition rate=100×[(VehicleEE−Cpd)/(VehicleEE−Vehicle)], VehicleEE was the wet weight of the rat uterus in the control group (administered 0.1 mg/kg of Ethinylestradiol orally); Cpd was the wet weight of the rat uterus in administration group; Vehicle was the wet weight of the rat uterus in the blank group.

Data set [2] concerns MCF-7 breast cancer cell xenograft. Briefly: In vivo efficacy, MCF-7 breast cancer cell xenograft model. Also noted: species or system BALB/c nude mice. The method, then: The purpose of this experiment was to evaluate the antitumor effect of the compound of the present disclosure on MCF-7 breast cancer cell xenograft BALB/c nude mice (provided by the Experimental Animal Management Department of the Shanghai Institute of Family Planning Sciences, and the number of test animals in each experimental group was 5) model.
Mice were subcutaneously inoculated with 0.36 mg, 60-day slow-release estrogen tablets in the left shoulder three days before inoculation. When the cells were in the logarithmic growth phase, the cells were collected and counted, and the cell concentration was adjusted to 10×10^7 cells/mL, and an equal volume of Matrigel was added to mix evenly and then used for inoculation. Each mouse was subcutaneously inoculated with 0.2 mL of MCF-7 tumor cell suspension (10×10^6) on the right shoulder. On day 9 after tumor cell inoculation, the average tumor volume was 160 mm^3 and the body weight was 22.0 to 23.0 g, which was administered in groups and administered once a day. Tumor volume and weight measurements were performed twice a week after grouping, and tumor proliferation rate (T/C) and tumor growth inhibition rate (TGI) were calculated for the last tumor volume data on the day 21 after grouping, and the antitumor effect of compounds was evaluated by TGI (%) or relative tumor proliferation rate T/C (%). TGI (%), reflecting the tumor growth inhibition rate. TGI (%)=[(1-(average tumor volume at the end of administration of a certain treatment group-average tumor volume at the beginning of administration of this treatment group)/(average tumor volume at the end of treatment in the solvent control group-average tumor volume at the beginning of treatment in this solvent control group)]×100%, relative tumor proliferation rate T/C (%)=TRTV/CRTV×100% (TRTV: average RTV of the treatment group; CRTV: average RTV of the negative control group). The relative tumor volume (RTV) was calculated according to the results of tumor measurement, and the formula was RTV=Vt/V0, wherein V0 was the average tumor volume measured at the time of group administration (i.e., D0), and Vt was the tumor volume at a certain measurement, TRTV and CRTV were taken on the same day.

Setting [3] is: female, Balb/c, mouse, plasma, iv, i.v. 5 mg/kg.
Setting [4] is: female, Balb/c, mouse, plasma, po, p.o. 10 mg/kg.

One may read the Vdss as a proportionality between amount in the body and measured concentration, not a real space. A low value points to confinement near the circulation. One may read the Cmax as the peak of the concentration-time curve. In data set [1] (i.v. 5 mg/kg), `FCCCN1CC[C@H](Nc2cnc(C3=C(CC(F)(F)F)CCCc4c3ccc3[nH]nc(F)c43)cn2)C1` [Compound 11A] registered an AUC0-last of 5.27 µM·h, a Cl of 30.2 mL/min/kg, a T1/2 of 5.16 h and a Vdss of 11.1 L/kg. In data set [1] (p.o. 10 mg/kg), this compound showed an AUC0-last of 5.856 µM·h, a Cmax of 779 nM and a T1/2 of 4.72 h. This compound had a F % in data set [1] (p.o. 10 mg/kg vs i.v. 5 mg/kg) of 55.4%. In addition, in the data set with rat uterus, the Inhibition rate is on record as 99.0%, the “Ratio of uterine wet weight/rat body weight” value is on record as 1.05 mg/g and the Uterine wet weight turned out to be 49.725 mg. Also, the Tumor volume in data set [2] (Day 0, 5 mg/kg once a day) was found to be 160 mm^3. Besides, in data set [2] (Day 4, 5 mg/kg once a day), the Tumor volume came to 184 mm^3. This compound also yielded a Tumor volume in data set [2] (Day 7, 5 mg/kg once a day) of 195 mm^3. Besides, in data set [2] (Day 11, 5 mg/kg once a day), the Tumor volume was determined as 200 mm^3. For the same compound, the Tumor volume in data set [2] (Day 14, 5 mg/kg once a day) was found to be 176 mm^3. In data set [2] (Day 18, 5 mg/kg once a day), the Tumor volume was 126 mm^3. For the same compound, in data set [2] (Day 21, 5 mg/kg once a day), the “T/C (%) (Day 21)” value is reported as 12.8%, the “TGI (%) (Day 21)” value is given as 107% and the Tumor volume was 112 mm^3.

The term AUC(0-t) denotes exposure summed from dosing to a finite time, without extrapolation to infinity. In general, clearance refers to the rate of elimination divided by the concentration. A higher clearance goes with a high capacity for elimination. The term half-life denotes the time in which the quantity being followed falls by half. Read a low half-life as fast loss. The term bioavailability denotes the share of a dose that reaches the circulation, judged against a reference dose that is usually intravenous. Higher therefore signals good availability. In the case of `FCCCN1CC(Nc2ccc(C3=C(CC(F)(F)F)CCCc4c3ccc3[nH]nc(F)c43)nc2)C1` [Compound 2], the AUC(0-t) in data set [1] (setting [3]) worked out at 8.47 µM·h; in data set [1] (setting [4]), 11.7 µM·h. The same compound yielded a clearance in data set [1] (setting [3]) of 18.3 mL/min/kg. In addition, the half-life in data set [1] (setting [3]) is 6.85 h; in data set [1] (setting [4]) it was 7.67 h. In data set [1] (female, Balb/c, mouse, plasma, iv, i.v. 5 mg/kg, read-out: Vdss), the Vd was 10.6 L/kg. Moreover, in data set [1] (female, Balb/c, mouse, plasma, oral, p.o. 10 mg/kg vs i.v. 5 mg/kg), the bioavailability was determined as 71.8%. The compound further displayed a Cmax in data set [1] (setting [4]) of 937 nM. In the data set with rat uterus, this compound registered an Inhibition rate of 95.8%. For the same compound, the “Ratio of uterine wet weight/rat body weight” value in the data set with rat uterus amounted to 0.84 mg/g. For the same compound, the Uterine wet weight with rat uterus is 52.34 mg. For the same compound, the Tumor volume in data set [2] (Day 0, 5 mg/kg once a day) worked out at 161 mm^3; in data set [2] (Day 4, 5 mg/kg once a day) it was 169 mm^3; in data set [2] (Day 7, 5 mg/kg once a day) it was 182 mm^3; in data set [2] (Day 11, 5 mg/kg once a day) it was 186 mm^3; in data set [2] (Day 14, 5 mg/kg once a day), 163 mm^3; in data set [2] (Day 18, 5 mg/kg once a day) it was 133 mm^3. Moreover, the Tumor volume in data set [2] (Day 21, 5 mg/kg once a day) was determined as 118 mm^3. In addition, the “T/C (%) (Day 21)” value in data set [2] (Day 21, 5 mg/kg once a day) is given as 12.3%. The “TGI (%) (Day 21)” value in data set [2] (Day 21, 5 mg/kg once a day) amounted to 106%.
